Source: PubChem BioAssay (NCI)
Where “and” joins values, the source holds several entries; their conditions need not be identical. Equal entries are not always repeated.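 Where inhibition never reached the appropriate level, the endpoint shown equals the highest concentration tested. Otherwise, values were interpolated linearly from a five-concentration, 48-hour dose response in 96-well plates. Here, GI50 denotes the concentration required for 50% inhibition of growth. TGI marks complete inhibition of growth.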

Legend:
Experiment in all cases: DTP human tumour cell line panel, 48 h
UO-31 renal = system: UO-31 renal
RPMI-8226 leukemia = system: RPMI-8226 leukemia
KM12 colon = system: KM12 colon
SR leukemia = system: SR leukemia
TK-10 renal = system: TK-10 renal
SN12C renal = system: SN12C renal
HOP-62 NSCLC = system: HOP-62 NSCLC
UACC-62 melanoma = system: UACC-62 melanoma
NCI-H226 lung = system: NCI-H226 lung
SF-539 CNS = system: SF-539 CNS

| Structure (SMILES) | GI50 (UO-31 renal) | TGI (UO-31 renal) | GI50 (RPMI-8226 leukemia) | TGI (RPMI-8226 leukemia) | GI50 (KM12 colon) | TGI (KM12 colon) | GI50 (SR leukemia) | TGI (SR leukemia) | GI50 (TK-10 renal) | TGI (TK-10 renal) | GI50 (SN12C renal) | TGI (SN12C renal) | GI50 (HOP-62 NSCLC) | TGI (HOP-62 NSCLC) | GI50 (UACC-62 melanoma) | TGI (UACC-62 melanoma) | GI50 (NCI-H226 lung) | TGI (NCI-H226 lung) | GI50 (SF-539 CNS) | TGI (SF-539 CNS) |
| --- | --- | --- | --- | --- | --- | --- | --- | --- | --- | --- | --- | --- | --- | --- | --- | --- | --- | --- | --- | --- |
| O=C(Nc1cc(Cl)cc(Cl)c1)c1cccc(NC2=C(Cl)C(=O)N(Cc3ccccc3)C2=O)c1 | 16.9 µM | > 100 µM | 2.31 µM | > 100 µM | 31.5 µM | > 100 µM | 6.02 µM | 80.8 µM | 31.8 µM | > 100 µM | 40 µM | > 100 µM | 37.4 µM | > 100 µM | 29.2 µM | > 100 µM | 51.4 µM | > 100 µM | – | – |
| O=C1NC2(CCCCC2)C(=O)N1CCN(CCCl)CCCl | > 25 µM | > 250 µM | > 25 µM | > 250 µM | > 25 µM | > 194 µM | – | 25 µM | – | > 25 µM | > 25 µM | > 250 µM | > 25 µM | > 25 µM and 149 µM | > 25 µM | > 25 µM and 242 µM | > 25 µM | > 250 µM | > 25 µM | > 250 µM |
| NS(=O)(=O)c1ccc(NC(=O)C2C(=O)C(=O)N(c3ccc(S(N)(=O)=O)cc3)C2=O)cc1 (configuration not stated) | – | > 100 µM | – | > 100 µM | – | – | – | > 100 µM | – | > 100 µM | – | > 100 µM | – | > 100 µM | – | > 100 µM | – | > 100 µM | – | > 100 µM |
| Cc1ccc(Cl)c(NS(=O)(=O)c2ccc(-c3cnc(C4CC4)o3)cc2)c1 | 0.275 µM | > 100 µM | 0.318 µM | 24.8 µM | 0.07 µM | 22.4 µM | 0.0549 µM | > 63.3 µM | 16 µM | > 89.7 µM | 0.415 µM | > 74.9 µM | 0.268 µM | > 83.7 µM | 0.0472 µM | 34.8 µM | 1.03 µM | 28.1 µM | 0.0803 µM | 1.54 µM |
| Nc1ncc(-c2ccc3ncnc(N4CCc5ccc(Cl)cc54)c3c2)cc1C(F)(F)F | 0.254 µM | 4.62 µM | 2.82 µM | > 100 µM | 2.48 µM | 48.3 µM | 2.55 µM | > 100 µM | 1.36 µM | 11 µM | 0.465 µM | 15.9 µM | 1.74 µM | 13.2 µM | 0.965 µM | 11.1 µM | 3.04 µM | 24.1 µM | 1.61 µM | 10.4 µM |
| Cc1nc2sc3c(N)ncnc3c2c(C)c1C | > 25 µM | > 25 µM | > 25 µM | > 25 µM | > 25 µM | > 25 µM | > 25 µM | > 25 µM | > 25 µM | > 25 µM | > 25 µM | > 25 µM | > 25 µM | > 25 µM | > 25 µM | > 25 µM | > 25 µM | > 25 µM | > 25 µM | > 25 µM |
| CCOc1ccc(C(C[N+](=O)[O-])Sc2ccccc2N)cc1 (configuration not stated) | 2.05 µM | 18.2 µM | 2.23 µM | 5.32 µM | 3.27 µM | 10.2 µM | 2.3 µM | 5.17 µM | 15.4 µM | 29.2 µM | 3.23 µM | 13.4 µM | 18.3 µM | 32.3 µM | 10 µM | 21.6 µM | 3.96 µM | 16.2 µM | 1.89 µM | 3.94 µM |
| CCN(CC)c1ccc(-c2cc(-c3cc(OC)c(OC)c(OC)c3)nc(N3CCC(O)CC3)c2C#N)cc1 | 0.274 µM | 1.82 µM | 0.232 µM | 4.78 µM | 0.512 µM | 2.98 µM | 0.399 µM | 2.61 µM | 1.1 µM | 6.92 µM | 0.626 µM | 3.19 µM | 1.01 µM | 11.9 µM | 0.264 µM | 0.662 µM | 0.756 µM | 5.77 µM | 0.554 µM | 2.47 µM |
| CCN1C(=O)N(CC)C2C1NN=c1s/c(=C3\C(=O)N(C4CCCC4)c4ccccc43)c(=O)n12 (configuration not stated) | – | – | 1.91 µM | 7.31 µM | 0.689 µM | > 100 µM | 0.392 µM | > 100 µM | 2.78 µM | 9.89 µM | 2.76 µM | > 100 µM | 1.54 µM | 14.4 µM | 0.465 µM | 36 µM | 1.47 µM | 5.54 µM | 0.484 µM | 2.4 µM |
| COc1ccccc1[As]=[As]c1ccccc1OC (configuration not stated) | 0.0923 µM | 0.24 µM | 0.0278 µM | 0.0832 µM | 0.11 µM | 0.24 µM | 0.0277 µM | 0.0707 µM | 0.0401 µM | 0.141 µM | 0.0489 µM | 0.179 µM | 0.05 µM | 0.164 µM | 0.0663 µM | 0.224 µM | 0.0723 µM | 0.21 µM | 0.0383 µM | 0.144 µM |
| N#Cc1nc(C#N)c(Sc2ccccc2)c(Sc2ccccc2)c1Sc1ccccc1 | 0.415 µM | 1.08 µM | 0.638 µM | > 28.3 µM | 1.67 µM | 3.26 µM | 0.305 µM | > 100 µM | 0.502 µM | 3.43 µM | 0.191 µM | 0.378 µM | – | > 20 µM | 1.37 µM | 3.2 µM | 2.42 µM | – | 0.399 µM | 1.31 µM |
| CCCCCCCCCCCCN=C(N)c1ccc(N2CCN(c3ccc(C(N)=NCCCCCCCCCCCC)cc3)CC2)cc1 | 22.6 µM | > 50 µM | – | – | 11.7 µM | 25.1 µM | 3.8 µM | > 50 µM | 13.2 µM | > 50 µM | 8.99 µM | 18.7 µM | 6.96 µM | 14.6 µM | 10.5 µM | 21.5 µM | 12.9 µM | 29.9 µM | – | – |
| CNC(=O)c1c(F)cccc1Nc1nc(Nc2cc3c(cc2OC)CCN3C(=O)CN(C)C)nc2[nH]ccc12 | 3.85 µM | 12.2 µM | 4.94 µM | 17.4 µM | 2.23 µM | 4.99 µM | 0.0203 µM | > 100 µM | 4.76 µM | 11.8 µM | 3.88 µM | 9.81 µM | 5.5 µM | 20.8 µM | 4.66 µM | 9.79 µM | 16.2 µM | 43.6 µM | 4.94 µM | 10.3 µM |
